Measured values from patent US6562782B1, “Oligocycloalkanoid compounds and methods of use” (University of Rochester, priority 1999, dated 2003).

Assay: UV titration of ter-cyclopentane tetra-amino acid derivatives with lipid A
Assay type: binding, Salmonella minnesota
Details: for binding to lipid A in UV titration, in words: aqueous solution, concentrations below the cmc of lipid A / >20 micromolar in lipid A
Description: A 600 microliter, 0.9 μM solution of the ter-cyclopentane tetra-amino acid derivative in water (pH=5.0) or phosphate-buffered saline (PBS, pH=7.4) was allowed to equilibrate in a 1.0-ml masked wall UV cell at ambient temperature (22° C.), in a Shimadzu 1600-PC UV spectrophotometer. […] After each addition, the solution was allowed to equilibrate for a minimum of 5 minutes, then scanned for absorbance 550-220 nm.

NC(Cc1c[nH]c2ccccc12)C(=O)OCC1CC(COC(=O)C(N)Cc2c[nH]c3ccccc23)C(C2CCC(C3C(COC(=O)C(N)Cc4c[nH]c5ccccc45)CC(COC(=O)C(N)Cc4c[nH]c5ccccc45)C3COC(=O)c3ccccc3)C2)C1COC(=O)c1ccccc1 (mixture of isomers) [Compound 7.3, tetra-tryptophaninate ter-cyclopentane]
lipid A binding affinity compared with polymyxins: greater than the binding affinity of polymyxins

NCC(=O)OCC1CC(COC(=O)CN)C(C2CCC(C3C(COC(=O)CN)CC(COC(=O)CN)C3COC(=O)c3ccccc3)C2)C1COC(=O)c1ccccc1 (stereo not shown) [Compound 7.1, tetra-glycinate ter-cyclopentane]
binding to lipid A in UV titration, in words: saturation point for binding of lipid A to 7.1 was not reached

COC(=O)[C@@H](N)Cc1c[nH]c2ccccc12 [Compound H2N-Trp-OCH3, tryptophan methyl-ester, reference compound]
binding to lipid A in UV titration, in words: not saturatable at the concentrations tested

tetra-phenylalaninate ter-cyclopentane [Compound 7.2]
binding to lipid A in UV titration, in words: reasonable affinity
